Measured values as given in US5399696A, “Isoquinolinyl compounds which are intermediates” (Eli Lilly and Company, priority 1993, dated 1995).

How the values were obtained:
[1] = tested on: NMDA receptor; assay: Antagonism of NMDA-induced depolarization of rat cortical wedges; assay type: cell-based; settings: NMDA 40 μM, mean ± standard error (n = 3), read-out: IC50 NMDA, antagonism of cortical wedge depolarization
Description: (§1) The depolarization of rat cortical wedges was used to test the selectivity and potency of the formula I compounds as AMPA antagonists using a technique similar to that described by Harrison and Simmonds. Harrison and Simmonds, Bri. J. Pharmacol., 84, 381-391 (1984). Generally, 4-ml aliquots of NMDA (40 μM), AMPA (40 μM), and kainate (10 μM) were superfused (2 ml/min.) on the grey matter at intervals of 15-20 minutes until stable responses were attained. The tissue was then exposed for 15 minutes to various concentrations of the formula I compounds before retesting the agonists. The IC50 values were calculated from linear regression of log dose-response curves, each point the mean of at least three observations on separate slices from more than one animal.

[2] = molecular target: NMDA receptor; assay: Radioligand binding: displacement of [^3 H]CGS19755 from synaptosomal membranes of rat forebrain (NMDA receptor affinity); settings: [^3 H]CGS19755 10 nM, mean ± standard error (n = 3), values marked ^c single experiment
Description: (§2) The formula I compounds were tested for their ability to inhibit NMDA, AMPA, and kainic acid receptor binding to rat membranes in a radioligand binding assay using [^3 H]CGS19755, [^3 H]AMPA, and [^3 H]KA. For all radioligand binding assays, male Sprague-Dawley rats were used. […] Non-specific binding was determined using 10 μM L-glutamate. Samples were incubated in an ice-bath for 30 minutes, and bound ligand was separated from the free ligand by rapid filtration through WHATMAN GF/B glass fiber filters. Murphy et al, British J. Pharmacol., 95, 932-938 (1988). Kainate binding was performed using washed synaptosomal membranes from the rat forebrain as described by Simon et al. Simon et al, J. Neurochem., 26, 141-147 (1976). Tritiated kainate (5 nM) was added to 50 mM Tris-HCl buffer (pH 7.4 at 4° C.) containing 200-300 μg/ml of tissue protein. Samples were incubated for 30 minutes in an ice-bath, then rapidly filtered using a Brandel cell harvester and WHATMAN GF/C filters. Filters were washed twice with 3 ml of cold buffer. Non-specific binding was determined using 100 μM non-labeled kainate. The binding of [^3 H]AMPA (5 nM) was conducted with crude membranes of rat forebrain in the presence of 100 mM KSCN as described by Nielson et al. Nielson et al, Eur. J. Med. Chem. Chim. Ther., 21, 433-437 (1986). Non-specific binding was determined with 10 μM non-labeled AMPA. The concentration of the formula I compound that inhibited 50% binding (IC50, mean ±standard error, n=3) as calculated by linear regression of displacement data transformed to the Hill equation as described by Bennett. Bennett, Neurotransmitter Receptor Binding, 57-90 (1978).

[3] = molecular target: kainic acid (KA) receptor; assay: Radioligand binding: tritiated kainate binding with washed synaptosomal membranes from the rat forebrain; settings: tritiated kainate 5 nM, pH 7.4, mean ± standard error (n = 3), values marked ^c single experiment
Description: as §2

[4] = molecular target: AMPA receptor; assay: Radioligand binding: [^3 H]AMPA binding with crude membranes of rat forebrain
Description: as §2

[5] = tested on: kainic acid (KA) receptor; assay: Antagonism of kainate-induced depolarization of rat cortical wedges; assay type: cell-based; settings: kainate 10 μM, mean ± standard error (n = 3)
Description: as §1

[6] = tested on: AMPA receptor; assay: Antagonism of AMPA-induced depolarization of rat cortical wedges; assay type: cell-based; settings: AMPA 40 μM, mean ± standard error (n = 3), read-out: IC50 AMPA, antagonism of cortical wedge depolarization
Description: as §1

[7] = Table I, racemic, [^3 H]AMPA 5 nM, 100 mM KSCN, mean ± standard error (n = 3), values marked ^c single experiment, read-out: IC50 AMPA, receptor binding
[8] = Table II, enantiopure, [^3 H]AMPA 5 nM, 100 mM KSCN, mean ± standard error (n = 3), values marked ^c single experiment, read-out: IC50 AMPA, receptor binding

IC50 [4, 7]	IC50 KA, receptor binding ([3]; Table II, enantiopure)	IC50 [4, 8]	Structure (SMILES)	IC50 ([1]; Table III, racemic)	IC50 ([2]; Table I, racemic)	IC50 KA, receptor binding ([3]; Table I, racemic)	further results
–	–	–	O=C(O)[C@@H]1C[C@H]2C[C@@H](CCc3nn[nH]n3)CC[C@H]2CN1 (relative stereo) [Compound 1, (3 SR,4aRS,6RS,8aRS)-6-[2-(1(2)H-Tetrazole-5-yl)ethyl]decahydroisoquinoline-3-carboxylic Acid]	61.3 ± 3 µM	26.4 ± 1.95 µM	246.98 ± 7.5 µM	IC50 KA, antagonism of cortical wedge depolarization ([5]; Table III, racemic): 31.7 ± 4.4 µM; IC50 ([6]; Table III, racemic): 6 ± 1 µM
80 µM	–	–	CS(=O)(=O)NC(=O)CC[C@H]1CC[C@H]2CN[C@H](C(=O)O)C[C@H]2C1 (relative stereo) [Compound 16, (3SR,4aRS,6RS,8aRS)-6-[2-((N-Methanesulfonyl)carboxamido)ethyl]decahydroisoquinoline-3-carboxylic Acid]	–	> 100 µM	> 100 µM	–
45.7 µM	–	–	O=C(CC[C@H]1CC[C@H]2CN[C@H](C(=O)O)C[C@H]2C1)Nc1nn[nH]n1 (relative stereo) [Compound 17, (3SR,4aRS,6RS,8aRS)-6-[2-(N-(1(2)H-Tetrazole-5-yl)carboxamido)ethyl]decahydroisoquinoline-3-carboxylic Acid]	–	> 100 µM	> 100 µM	–
3.37 µM	–	–	CC(Cc1nn[nH]n1)[C@H]1CC[C@H]2CN[C@H](C(=O)O)C[C@H]2C1 (stereo partly drawn) [Compound 18, (3SR,4aRS,6RS,8aRS)-6-[2-(1(2)H-Tetrazole-5-yl)-1-methylethyl]decahydroisoquinoline-3-carboxylic Acid]	–	43.1 µM	28.2 µM	IC50 ([4]; text summary of Table I, racemic, read-out: selectively displaced ^3 H-AMPA with IC50 values): < 15 µM
–	> 100 µM	0.63 µM	O=C(O)[C@@H]1C[C@H]2C[C@@H](CS(=O)(=O)c3nc[nH]n3)CC[C@H]2CN1 [Compound 26, (3S,4aR,6S,8aR)-6-[(1(2-4)H-1,2,4-Triazole-5-yl)sulfonylmethyl]decahydroisoquinoline-3-carboxylic Acid]	–	–	–	IC50 ([2]; Table II, enantiopure): > 100 µM
–	> 100 µM	23.6 µM	O=C(O)[C@H]1C[C@@H]2C[C@H](CS(=O)(=O)c3nc[nH]n3)CC[C@@H]2CN1 [Compound 27, (3R,4aS,6R,8aS)-6-[(1(2-4)H-1,2,4-Triazole-5-yl)sulfonylmethyl]decahydroisoquinoline-3-carboxylic Acid]	–	–	–	IC50 ([2]; Table II, enantiopure): 60.9 µM

Structure (SMILES)	IC50 [4, 7]	IC50 KA, receptor binding ([3]; Table II, enantiopure)	IC50 [4, 8]	IC50 ([1]; Table III, racemic)	IC50 ([2]; Table I, racemic)	IC50 KA, receptor binding ([3]; Table I, racemic)	further results
O=C(O)CC[C@H]1CC[C@H]2CN[C@H](C(=O)O)C[C@H]2C1 (racemic) [Compound 11, (3SR,4aRS,6RS,8aRS)-6-(2-Carboxyethyl)-decahydroisoquinoline-3-carboxylic Acid]	27.8 ± 0.6 µM	–	–	57 ± 4.4 µM	43.9 ± 4.1 µM	> 100 µM	IC50 KA, antagonism of cortical wedge depolarization ([5]; Table III, racemic): > 100 µM; IC50 ([6]; Table III, racemic): 42 ± 6.5 µM
O=C(O)[C@@H]1C[C@H]2C[C@H](CCc3nn[nH]n3)CC[C@H]2CN1 (relative stereo) [Compound 2, (3SR,4aRS,6SR,8aRS)-6-[2-(1(2)H-Tetrazole-5-yl)ethyl]decahydroisoquinoline-3-carboxylic Acid]	59.6 ± 4.3 µM	–	–	> 100 µM	60.6 ± 24.8 µM	180.0 ± 22.1 µM	–
O=C(O)[C@@H]1C[C@H]2C[C@H](CCc3nn[nH]n3)CC[C@H]2CN1 [Compound 22, (3S,4aR,6S,8a,R)-6-[2-(1(2)H-Tetrazole-5-yl)ethyl]decahydroisoquinoline-3-carboxylic Acid]	–	85.3 µM	15.3 µM	–	–	–	IC50 ([1]; Table IV, enantiopure): > 100 µM; IC50 KA, antagonism of cortical wedge depolarization ([5]; Table IV, enantiopure): 28.9 ± 9.2 µM; IC50 ([6]; Table IV, enantiopure): 21.9 ± 3.3 µM
